# Calls of active or inactive are those of the source. The calls are words filed in the database; no cut-off is given here.
# Columns and labels:
# T47D [1] = experiment: Growth inhibition of human T47D cells assessed as cell growth at 10^-5 M incubated for 48 hrs by sulforhodamine B assay relative to control; format: functional; details: read-out: Activity
# U-251 = experiment: Growth inhibition of human U251 cells assessed as cell growth at 10^-4 M incubated for 48 hrs by sulforhodamine B assay relative to control; format: functional; details: U-251, 48 h, read-out: Activity
# MDA-MB-435 [2] = experiment: Cell cycle arrest in human MDA-MB-435 cells assessed as accumulation at G2-phase by propidium iodide staining based flow cytometry (reference value: 3.68%); format: functional
# EKVX [3] = experiment: Growth inhibition of human EKVX cells assessed as cell growth at 10^-8 M incubated for 48 hrs by sulforhodamine B assay relative to control; format: functional; details: read-out: Activity
# OVCAR-8 [4] = experiment: Growth inhibition of human OVCAR8 cells assessed as cell growth at 10^-8 M incubated for 48 hrs by sulforhodamine B assay relative to control; format: functional; details: OVCAR-8, 48 h, read-out: Activity
# IGROV-1 = experiment: Growth inhibition of human IGROV1 cells assessed as cell growth at 10^-7 M incubated for 48 hrs by sulforhodamine B assay relative to control; format: functional; details: IGROV-1, 48 h, read-out: Activity
# OVCAR-8 [5] = experiment: Growth inhibition of human OVCAR8 cells assessed as cell growth at 10^-4 M incubated for 48 hrs by sulforhodamine B assay relative to control; format: functional; details: OVCAR-8, 48 h, read-out: Activity
# T47D [6] = experiment: Growth inhibition of human T47D cells assessed as cell growth at 10^-4 M incubated for 48 hrs by sulforhodamine B assay relative to control; format: functional; details: read-out: Activity
# MOLT-4 = experiment: Growth inhibition of human MOLT4 cells assessed as cell growth at 10^-7 M incubated for 48 hrs by sulforhodamine B assay relative to control; format: functional; details: MOLT-4, 48 h, read-out: Activity
# HL-60 [7] = experiment: Induction of apoptosis in human HL60 cells assessed as necrotic cells by propidium iodide/Annexin V staining based flow cytometry (reference value: 0.34%); format: functional
# TK-10 [8] = experiment: Growth inhibition of human TK10 cells assessed as cell growth at 10^-7 M incubated for 48 hrs by sulforhodamine B assay relative to control; format: functional; details: TK-10, 48 h, read-out: Activity
# SNB-75 = experiment: Growth inhibition of human SNB75 cells assessed as cell growth at 10^-6 M incubated for 48 hrs by sulforhodamine B assay relative to control; format: functional; details: SNB-75, 48 h, read-out: Activity
# SF-295 [9] = experiment: Growth inhibition of human SF295 cells assessed as cell growth at 10^-7 M incubated for 48 hrs by sulforhodamine B assay relative to control; format: functional; details: SF-295, 48 h, read-out: Activity
# HL-60 [10] = experiment: Downregulation of HDAC3 mRNA expression in human HL60 cells by qRT-PCR method; format: functional, cell-based
# CCRF-CEM = experiment: Growth inhibition of human CCRF-CEM cells assessed as cell growth at 10^-8 M incubated for 48 hrs by sulforhodamine B assay relative to control; format: functional; details: read-out: Activity
# UO-31 = experiment: Growth inhibition of human UO31 cells assessed as cell growth at 10^-7 M incubated for 48 hrs by sulforhodamine B assay relative to control; format: functional; details: UO-31, 48 h, read-out: Activity
# NCI-H226 = experiment: Growth inhibition of human NCI-H226 cells incubated for 48 hrs by sulforhodamine B assay; format: functional; details: NCI-H226, 48 h
# LOX IMVI = experiment: Growth inhibition of human LOXIMVI cells incubated for 48 hrs by sulforhodamine B assay; format: functional
# SF-295 [11] = experiment: Growth inhibition of human SF295 cells assessed as cell growth at 10^-5 M incubated for 48 hrs by sulforhodamine B assay relative to control; format: functional; details: SF-295, 48 h, read-out: Activity
# SK-MEL-2 = experiment: Growth inhibition of human SK-MEL-2 cells assessed as cell growth at 10^-5 M incubated for 48 hrs by sulforhodamine B assay relative to control; format: functional; details: SK-MEL-2, 48 h, read-out: Activity
# TK-10 [12] = experiment: Growth inhibition of human TK10 cells assessed as cell growth at 10^-4 M incubated for 48 hrs by sulforhodamine B assay relative to control; format: functional; details: TK-10, 48 h, read-out: Activity
# RPMI-8226 [13] = experiment: Growth inhibition of human RPMI8226 cells incubated for 48 hrs by sulforhodamine B assay; format: functional; details: RPMI-8226, 48 h
# EKVX [14] = experiment: Growth inhibition of human EKVX cells assessed as cell growth at 10^-4 M incubated for 48 hrs by sulforhodamine B assay relative to control; format: functional; details: read-out: Activity
# TK-10 [15] = experiment: Growth inhibition of human TK10 cells assessed as cell growth at 10^-5 M incubated for 48 hrs by sulforhodamine B assay relative to control; format: functional; details: TK-10, 48 h, read-out: Activity
# SF-295 [16] = experiment: Growth inhibition of human SF295 cells assessed as cell growth at 10^-6 M incubated for 48 hrs by sulforhodamine B assay relative to control; format: functional; details: SF-295, 48 h, read-out: Activity
# SF-539 = experiment: Growth inhibition of human SF539 cells assessed as cell growth at 10^-7 M incubated for 48 hrs by sulforhodamine B assay relative to control; format: functional; details: SF-539, 48 h, read-out: Activity
# SK-MEL-28 = experiment: Growth inhibition of human SK-MEL-28 cells incubated for 48 hrs by sulforhodamine B assay; format: functional; details: SK-MEL-28, 48 h
# RPMI-8226 [17] = experiment: Growth inhibition of human RPMI8226 cells assessed as cell growth at 10^-8 M incubated for 48 hrs by sulforhodamine B assay relative to control; format: functional; details: RPMI-8226, 48 h, read-out: Activity
# Malme-3M = experiment: Growth inhibition of human MALME-3M cells assessed as cell growth at 10^-8 M incubated for 48 hrs by sulforhodamine B assay relative to control; format: functional; details: read-out: Activity
# NCI-H460 = experiment: Growth inhibition of human NCI-H460 cells assessed as cell growth at 10^-4 M incubated for 48 hrs by sulforhodamine B assay relative to control; format: functional; details: NCI-H460, 48 h, read-out: Activity
# NCI-H522 = experiment: Growth inhibition of human NCI-H522 cells assessed as cell growth at 10^-6 M incubated for 48 hrs by sulforhodamine B assay relative to control; format: functional; details: NCI-H522, 48 h, read-out: Activity
# MDA-MB-435 [18] = experiment: Induction of apoptosis in human MDA-MB-435 cells assessed as late apoptotic cells by propidium iodide/Annexin V staining based flow cytometry (reference value: 0.22%); format: functional
# SN12C = experiment: Growth inhibition of human SN12C cells assessed as cell growth at 10^-7 M incubated for 48 hrs by sulforhodamine B assay relative to control; format: functional; details: read-out: Activity
# [19] = read-out: LC50 (the source's name)
# [20] = read-out: pLC50 (the source's name) (converted)
smiles,measurement,setting,value
CCS/C(Nc1ccccc1)=C(\C#N)C(=O)N/N=C\c1ccc(Cl)cc1Cl,growth at 10 µM,T47D [1],24%
same,growth at 100 µM,U-251,12%
same,Activity,MDA-MB-435 [2],12.4%
same,growth at 0.01 µM,EKVX [3],98%
same,growth at 0.01 µM,OVCAR-8 [4],94%
same,growth at 0.1 µM,IGROV-1,98%
same,growth at 100 µM,OVCAR-8 [5],20%
same,growth at 100 µM,T47D [6],17%
same,growth at 0.1 µM,MOLT-4,82%
same,Activity,HL-60 [7],2.03%
same,growth at 0.1 µM,TK-10 [8],91%
same,growth at 1 µM,SNB-75,76%
same,growth at 0.1 µM,SF-295 [9],88%
same,Activity,HL-60 [10],Active
same,growth at 0.01 µM,CCRF-CEM,103%
same,growth at 0.1 µM,UO-31,90%
same,GI50,NCI-H226; read-out: GI50,4 µM
same,CC50,NCI-H226; [19],> 100 µM
same,TGI,NCI-H226; read-out: TGI,> 100 µM
same,GI50,NCI-H226; read-out: pGI50 (converted),3.98 µM
same,CC50,NCI-H226; [20],> 100 µM
same,TGI,NCI-H226; read-out: pTGI (converted),> 100 µM
same,GI50,LOX IMVI; read-out: GI50,5.88 µM
same,CC50,LOX IMVI; [19],> 100 µM
same,TGI,LOX IMVI; read-out: TGI,> 100 µM
same,GI50,LOX IMVI; read-out: pGI50 (converted),5.89 µM
same,CC50,LOX IMVI; [20],> 100 µM
same,TGI,LOX IMVI; read-out: pTGI,> 100 µM
same,growth at 10 µM,SF-295 [11],15%
same,growth at 10 µM,SK-MEL-2,16%
same,growth at 100 µM,TK-10 [12],42%
same,GI50,RPMI-8226 [13]; read-out: GI50,3.68 µM
same,CC50,RPMI-8226 [13]; [19],> 100 µM
same,TGI,RPMI-8226 [13]; read-out: TGI,> 100 µM
same,GI50,RPMI-8226 [13]; read-out: pGI50 (converted),3.72 µM
same,CC50,RPMI-8226 [13]; [20],> 100 µM
same,TGI,RPMI-8226 [13]; read-out: pTGI,> 100 µM
same,growth at 100 µM,EKVX [14],29%
same,growth at 10 µM,TK-10 [15],50%
same,growth at 1 µM,SF-295 [16],80%
same,growth at 0.1 µM,SF-539,94%
same,GI50,SK-MEL-28; read-out: GI50,23.6 µM
same,CC50,SK-MEL-28; [19],> 100 µM
same,TGI,SK-MEL-28; read-out: TGI,> 100 µM
same,GI50,SK-MEL-28; read-out: pGI50 (converted),23.4 µM
same,CC50,SK-MEL-28; [20],> 100 µM
same,TGI,SK-MEL-28; read-out: pTGI,> 100 µM
same,growth at 0.01 µM,RPMI-8226 [17],101%
same,growth at 0.01 µM,Malme-3M,103%
same,growth at 100 µM,NCI-H460,6%
same,growth at 1 µM,NCI-H522,68%
same,Activity,MDA-MB-435 [18],3.47%
same,growth at 0.1 µM,SN12C,92%
CCS/C(Nc1ccccc1)=C(\C#N)C(=O)Nc1ccc(OC)cc1,growth at 10 µM,T47D [1],25%
same,growth at 100 µM,U-251,6%
same,Activity,MDA-MB-435 [2],16.44%
same,growth at 0.01 µM,EKVX [3],89%
same,growth at 0.01 µM,OVCAR-8 [4],100%
same,growth at 0.1 µM,IGROV-1,101%
same,growth at 100 µM,OVCAR-8 [5],10%
same,growth at 100 µM,T47D [6],3%
same,growth at 0.1 µM,MOLT-4,90%
same,Activity,HL-60 [7],1.98%
same,growth at 0.1 µM,TK-10 [8],95%
same,growth at 1 µM,SNB-75,81%
same,growth at 0.1 µM,SF-295 [9],90%
same,Activity,HL-60 [10],Active
same,growth at 0.01 µM,CCRF-CEM,91%
same,growth at 0.1 µM,UO-31,91%
same,GI50,NCI-H226; read-out: GI50,5.45 µM
same,CC50,NCI-H226; [19],> 100 µM
same,TGI,NCI-H226; read-out: TGI,50.7 µM
same,GI50,NCI-H226; read-out: pGI50 (converted),5.5 µM
same,CC50,NCI-H226; [20],> 100 µM
same,TGI,NCI-H226; read-out: pTGI (converted),50.1 µM
same,GI50,LOX IMVI; read-out: GI50,6.16 µM
same,CC50,LOX IMVI; [19],> 100 µM
same,TGI,LOX IMVI; read-out: TGI,> 100 µM
same,GI50,LOX IMVI; read-out: pGI50 (converted),6.17 µM
same,CC50,LOX IMVI; [20],> 100 µM
same,TGI,LOX IMVI; read-out: pTGI,> 100 µM
same,growth at 10 µM,SF-295 [11],16%
same,growth at 10 µM,SK-MEL-2,11%
same,growth at 100 µM,TK-10 [12],24%
same,GI50,RPMI-8226 [13]; read-out: GI50,2.52 µM
same,CC50,RPMI-8226 [13]; [19],> 100 µM
same,TGI,RPMI-8226 [13]; read-out: TGI,> 100 µM
same,GI50,RPMI-8226 [13]; read-out: pGI50 (converted),2.51 µM
same,CC50,RPMI-8226 [13]; [20],> 100 µM
same,TGI,RPMI-8226 [13]; read-out: pTGI,> 100 µM
same,growth at 100 µM,EKVX [14],16%
same,growth at 10 µM,TK-10 [15],66%
same,growth at 1 µM,SF-295 [16],82%
same,growth at 0.1 µM,SF-539,92%
same,GI50,SK-MEL-28; read-out: GI50,15.3 µM
same,CC50,SK-MEL-28; [19],> 100 µM
same,TGI,SK-MEL-28; read-out: TGI,> 100 µM
same,GI50,SK-MEL-28; read-out: pGI50 (converted),15.5 µM
same,CC50,SK-MEL-28; [20],> 100 µM
same,TGI,SK-MEL-28; read-out: pTGI,> 100 µM
same,growth at 0.01 µM,RPMI-8226 [17],94%
same,growth at 0.01 µM,Malme-3M,98%
same,growth at 100 µM,NCI-H460,-9%
same,growth at 1 µM,NCI-H522,77%
same,Activity,MDA-MB-435 [18],6.38%
same,growth at 0.1 µM,SN12C,97%

# From ChEMBL document CHEMBL4145553, “Design, synthesis, and biological evaluation of novel amide and hydrazide based thioether analogs targeting Histone deacteylase (HDAC) enzymes” (Eur J Med Chem, 2018)
